The supplement of paper PMC5908809

Assays:
[1] = system: normal primary NK cells, pool 3 (3 donors) (IL-2 2.5 ng/mL); assay: drug sensitivity score (DSS) (DSS units); higher = more sensitive; extreme values may be limits of the assay; conditions: 72 h
[2] = system: YT (IL-2 2.5 ng/mL); assay: as above; conditions: 72 h
[3] = system: SNK-6 (IL-2 2.5 ng/mL); assay: as above; conditions: 72 h
[4] = system: IMC-1 (IL-2 20 ng/mL); assay: as above; conditions: 72 h
[5] = system: NK-YS (IL-2 2.5 ng/mL); assay: as above; conditions: 72 h
[6] = system: KAI3 (IL-2 2.5 ng/mL); assay: as above; conditions: 72 h
[7] = system: normal primary NK cells, pool 1 (3 donors) (IL-2 2.5 ng/mL); assay: as above; conditions: 72 h
[8] = system: NK-92 (IL-2 2.5 ng/mL); assay: as above; conditions: 72 h
[9] = system: NKL (IL-2 2.5 ng/mL); assay: as above; conditions: 72 h
[10] = system: normal primary NK cells, pool 1 (3 donors), resting (IL-2 0 ng/mL); assay: as above; conditions: 72 h
[11] = system: DERL-7 (IL-2 2.5 ng/mL); assay: as above; conditions: 72 h
[12] = system: normal primary NK cells, pool 2 (3 donors) (IL-2 2.5 ng/mL); assay: as above; conditions: 72 h
[13] = system: KHYG-1 (IL-2 2.5 ng/mL); assay: as above; conditions: 72 h
[14] = system: normal NK cells expanded with K562-aAPC; assay: as above; conditions: 72 h; IL-2 2.5 ng/mL
Protocol: (§1)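 Drug sensitivity and resistance testing on K562-aAPC-expanded normal NK cells: 5 concentrations (10-fold steps over a 10,000-fold range), 72 h at 37 °C, viability by CellTiter-Glo normalised to DMSO and benzethonium chloride controls; DSS from the fitted curve.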

[15] = system: normal NK cells expanded with K562-aAPC; assay: percent inhibition of viability; higher = more inhibition; conditions: 72 h, IL-2 2.5 ng/mL
Protocol: as §1

[16] = system: normal primary NK cells, pool 3 (3 donors) (IL-2 2.5 ng/mL); assay: as above; conditions: 72 h
[17] = system: YT (IL-2 2.5 ng/mL); assay: as above; conditions: 72 h
[18] = system: SNK-6 (IL-2 2.5 ng/mL); assay: as above; conditions: 72 h
[19] = system: IMC-1 (IL-2 20 ng/mL); assay: as above; conditions: 72 h
[20] = system: NK-YS (IL-2 2.5 ng/mL); assay: as above; conditions: 72 h
[21] = system: KAI3 (IL-2 2.5 ng/mL); assay: as above; conditions: 72 h
[22] = system: normal primary NK cells, pool 1 (3 donors) (IL-2 2.5 ng/mL); assay: as above; conditions: 72 h
[23] = system: NK-92 (IL-2 2.5 ng/mL); assay: as above; conditions: 72 h
[24] = system: NKL (IL-2 2.5 ng/mL); assay: as above; conditions: 72 h
[25] = system: normal primary NK cells, pool 1 (3 donors), resting (IL-2 0 ng/mL); assay: as above; conditions: 72 h
[26] = system: DERL-7 (IL-2 2.5 ng/mL); assay: as above; conditions: 72 h
[27] = system: normal primary NK cells, pool 2 (3 donors) (IL-2 2.5 ng/mL); assay: as above; conditions: 72 h
[28] = system: KHYG-1 (IL-2 2.5 ng/mL); assay: as above; conditions: 72 h

## O=c1[nH]cc(F)c(=O)[nH]1 [Fluorouracil] (max concentration tested 10000 nM)
[1]
  drug sensitivity score: 0
[2]
  drug sensitivity score: 8.28
[3]
  drug sensitivity score: 9.4
[4]
  drug sensitivity score: 0.36
[5]
  drug sensitivity score: 9.4
[6]
  drug sensitivity score: 8.77
[7]
  drug sensitivity score: 0
[8]
  drug sensitivity score: 8.76
[9]
  drug sensitivity score: 8.01
[10]
  drug sensitivity score: 5.42
[11]
  drug sensitivity score: 4.1
[12]
  drug sensitivity score: 0
[13]
  drug sensitivity score: 6.91
[14]
  drug sensitivity score: 2.24
[15]; 1 nM
  percent inhibition of viability: -6.1%
[15]; 10 nM
  percent inhibition of viability: -8.86%
[15]; 100 nM
  percent inhibition of viability: -5.42%
[15]; 1000 nM
  percent inhibition of viability: 2.62%
[15]; 10000 nM
  percent inhibition of viability: 38.1%
[16]; 1 nM
  percent inhibition of viability: -3.48%
[16]; 10 nM
  percent inhibition of viability: 2.62%
[16]; 100 nM
  percent inhibition of viability: 7.34%
[16]; 1000 nM
  percent inhibition of viability: 0.65%
[16]; 10000 nM
  percent inhibition of viability: 7.07%
[17]; 1 nM
  percent inhibition of viability: -7.37%
[17]; 10 nM
  percent inhibition of viability: -4.14%
[17]; 100 nM
  percent inhibition of viability: -1.13%
[17]; 1000 nM
  percent inhibition of viability: 39.8%
[17]; 10000 nM
  percent inhibition of viability: 64%
[18]; 1 nM
  percent inhibition of viability: -7.99%
[18]; 10 nM
  percent inhibition of viability: -14.1%
[18]; 100 nM
  percent inhibition of viability: -22.8%
[18]; 1000 nM
  percent inhibition of viability: 34.2%
[18]; 10000 nM
  percent inhibition of viability: 86.7%
[19]; 1 nM
  percent inhibition of viability: -7.45%
[19]; 10 nM
  percent inhibition of viability: 1.88%
[19]; 100 nM
  percent inhibition of viability: -3.48%
[19]; 1000 nM
  percent inhibition of viability: 4.56%
[19]; 10000 nM
  percent inhibition of viability: 12.9%
[20]; 1 nM
  percent inhibition of viability: -1.75%
[20]; 10 nM
  percent inhibition of viability: 0.12%
[20]; 100 nM
  percent inhibition of viability: 4.17%
[20]; 1000 nM
  percent inhibition of viability: 40.3%
[20]; 10000 nM
  percent inhibition of viability: 84%
[21]; 1 nM
  percent inhibition of viability: -0.14%
[21]; 10 nM
  percent inhibition of viability: 3.84%
[21]; 100 nM
  percent inhibition of viability: 8.25%
[21]; 1000 nM
  percent inhibition of viability: 42.8%
[21]; 10000 nM
  percent inhibition of viability: 49.3%
[22]; 1 nM
  percent inhibition of viability: -1.01%
[22]; 10 nM
  percent inhibition of viability: 15.2%
[22]; 100 nM
  percent inhibition of viability: 8.55%
[22]; 1000 nM
  percent inhibition of viability: 0.37%
[22]; 10000 nM
  percent inhibition of viability: 11.4%
[23]; 1 nM
  percent inhibition of viability: -11.2%
[23]; 10 nM
  percent inhibition of viability: 1.29%
[23]; 100 nM
  percent inhibition of viability: 5.09%
[23]; 1000 nM
  percent inhibition of viability: 42.9%
[23]; 10000 nM
  percent inhibition of viability: 60%
[24]; 1 nM
  percent inhibition of viability: -15.3%
[24]; 10 nM
  percent inhibition of viability: -7.36%
[24]; 100 nM
  percent inhibition of viability: -0.39%
[24]; 1000 nM
  percent inhibition of viability: 28.1%
[24]; 10000 nM
  percent inhibition of viability: 74.8%
[25]; 1 nM
  percent inhibition of viability: 2.96%
[25]; 10 nM
  percent inhibition of viability: 13.7%
[25]; 100 nM
  percent inhibition of viability: 16.1%
[25]; 1000 nM
  percent inhibition of viability: 21.9%
[25]; 10000 nM
  percent inhibition of viability: 19%
[26]; 1 nM
  percent inhibition of viability: -1.71%
[26]; 10 nM
  percent inhibition of viability: -2.2%
[26]; 100 nM
  percent inhibition of viability: -3.46%
[26]; 1000 nM
  percent inhibition of viability: 5.05%
[26]; 10000 nM
  percent inhibition of viability: 60.8%
[27]; 1 nM
  percent inhibition of viability: 1.43%
[27]; 10 nM
  percent inhibition of viability: 2.09%
[27]; 100 nM
  percent inhibition of viability: 10.1%
[27]; 1000 nM
  percent inhibition of viability: 5%
[27]; 10000 nM
  percent inhibition of viability: 7.54%
[28]; 1 nM
  percent inhibition of viability: -4.58%
[28]; 10 nM
  percent inhibition of viability: -7.58%
[28]; 100 nM
  percent inhibition of viability: -3.77%
[28]; 1000 nM
  percent inhibition of viability: 12.7%
[28]; 10000 nM
  percent inhibition of viability: 86.4%

## C[C@@H](Nc1cc(F)cc(F)c1)c1cc(C(=O)N(C)C)cc2c(=O)cc(N3CCOCC3)oc12 [AZD-8186] (max concentration tested 1000 nM)
[1]
  drug sensitivity score: 0
[2]
  drug sensitivity score: 0
[3]
  drug sensitivity score: 0
[4]
  drug sensitivity score: 0
[5]
  drug sensitivity score: 0
[6]
  drug sensitivity score: 0
[7]
  drug sensitivity score: 0.51
[8]
  drug sensitivity score: 2.45
[9]
  drug sensitivity score: 0
[10]
  drug sensitivity score: 2.41
[11]
  drug sensitivity score: 1.36
[12]
  drug sensitivity score: 0
[13]
  drug sensitivity score: 0
[14]
  drug sensitivity score: 0
[15]; 0.1 nM
  percent inhibition of viability: -7%
[15]; 1 nM
  percent inhibition of viability: -2.1%
[15]; 10 nM
  percent inhibition of viability: -0.27%
[15]; 100 nM
  percent inhibition of viability: 1.82%
[15]; 1000 nM
  percent inhibition of viability: 6.33%
[16]; 0.1 nM
  percent inhibition of viability: -6.84%
[16]; 1 nM
  percent inhibition of viability: -3.88%
[16]; 10 nM
  percent inhibition of viability: -7.48%
[16]; 100 nM
  percent inhibition of viability: -5.25%
[16]; 1000 nM
  percent inhibition of viability: -2.65%
[17]; 0.1 nM
  percent inhibition of viability: -0.09%
[17]; 1 nM
  percent inhibition of viability: -4.44%
[17]; 10 nM
  percent inhibition of viability: -2.79%
[17]; 100 nM
  percent inhibition of viability: 1.47%
[17]; 1000 nM
  percent inhibition of viability: 3.03%
[18]; 0.1 nM
  percent inhibition of viability: 10%
[18]; 1 nM
  percent inhibition of viability: 11.1%
[18]; 10 nM
  percent inhibition of viability: -10.9%
[18]; 100 nM
  percent inhibition of viability: -9.3%
[18]; 1000 nM
  percent inhibition of viability: -17.3%
[19]; 0.1 nM
  percent inhibition of viability: -4.26%
[19]; 1 nM
  percent inhibition of viability: -2.05%
[19]; 10 nM
  percent inhibition of viability: -9.6%
[19]; 100 nM
  percent inhibition of viability: -12.9%
[19]; 1000 nM
  percent inhibition of viability: -13.3%
[20]; 0.1 nM
  percent inhibition of viability: -5.07%
[20]; 1 nM
  percent inhibition of viability: -6.92%
[20]; 10 nM
  percent inhibition of viability: -2.82%
[20]; 100 nM
  percent inhibition of viability: -2.72%
[20]; 1000 nM
  percent inhibition of viability: 4.56%
[21]; 0.1 nM
  percent inhibition of viability: -2.99%
[21]; 1 nM
  percent inhibition of viability: 1.77%
[21]; 10 nM
  percent inhibition of viability: 1.66%
[21]; 100 nM
  percent inhibition of viability: 8.81%
[21]; 1000 nM
  percent inhibition of viability: 5.34%
[22]; 0.1 nM
  percent inhibition of viability: -5.02%
[22]; 1 nM
  percent inhibition of viability: -7%
[22]; 10 nM
  percent inhibition of viability: 5.11%
[22]; 100 nM
  percent inhibition of viability: 5.09%
[22]; 1000 nM
  percent inhibition of viability: 16.9%
[23]; 0.1 nM
  percent inhibition of viability: -5.14%
[23]; 1 nM
  percent inhibition of viability: -3.4%
[23]; 10 nM
  percent inhibition of viability: -6.34%
[23]; 100 nM
  percent inhibition of viability: 7.87%
[23]; 1000 nM
  percent inhibition of viability: 29.8%
[24]; 0.1 nM
  percent inhibition of viability: -15.3%
[24]; 1 nM
  percent inhibition of viability: -13.8%
[24]; 10 nM
  percent inhibition of viability: -5.07%
[24]; 100 nM
  percent inhibition of viability: -8.33%
[24]; 1000 nM
  percent inhibition of viability: -6.27%
[25]; 0.1 nM
  percent inhibition of viability: 3.9%
[25]; 1 nM
  percent inhibition of viability: -3.52%
[25]; 10 nM
  percent inhibition of viability: 11.1%
[25]; 100 nM
  percent inhibition of viability: 13.5%
[25]; 1000 nM
  percent inhibition of viability: 24.3%
[26]; 0.1 nM
  percent inhibition of viability: -0.61%
[26]; 1 nM
  percent inhibition of viability: -0.52%
[26]; 10 nM
  percent inhibition of viability: 0.73%
[26]; 100 nM
  percent inhibition of viability: 12.4%
[26]; 1000 nM
  percent inhibition of viability: 17.2%
[27]; 0.1 nM
  percent inhibition of viability: -10.7%
[27]; 1 nM
  percent inhibition of viability: -2.64%
[27]; 10 nM
  percent inhibition of viability: -11.3%
[27]; 100 nM
  percent inhibition of viability: -1.73%
[27]; 1000 nM
  percent inhibition of viability: 4.08%
[28]; 0.1 nM
  percent inhibition of viability: -0.98%
[28]; 1 nM
  percent inhibition of viability: -2.42%
[28]; 10 nM
  percent inhibition of viability: -2.86%
[28]; 100 nM
  percent inhibition of viability: 0.88%
[28]; 1000 nM
  percent inhibition of viability: -3.51%
